Experimental data reported in US11559482B2, “Biodegradable polyethylene glycol based water-insoluble hydrogels” (Ascendis Pharma A/S, priority 2009, dated 2023).

Assay: Injectability: force versus flow using a 30 G needle
Assay type: physicochemical
Conditions: 1 mL syringe
Description: 5 mL insulin-linker-hydrogel prodrug 29 (bead size distribution from 32-75 μm, 18 mg insulin/ml insulin-linker-hydrogel prodrug suspension) was buffer exchanged into pH 5.0 succinic acid/tris (10 mM, 40 g/L mannitol; 10 g/L trehalose dihydrate; 0.05% TWEEN-20). The insulin-linker-hydrogel prodrug suspension was filled into a 1 mL syringe (length 57 mm) via a 20 G needle. The 20 G needle was replaced by a 30 G needle and placed into the syringe mounting (Aqua Computer GmbH&Co. KG) and the measurement was started with a piston velocity of 172 mm/min (equals 50 μL/s) (Force test stand: Multitest 1-d, Data recording software: EvaluatEmperor Lite, Version 1.16-015, Forge Gauge: BFG 200 N (all Mecmesin Ltd., UK). Experiments with increasing piston velocities shown in the table below were carried out with a new insulin-linker-hydrogel prodrug sample. The experiments with water and ethylene glycol were carried out accordingly. For all of the experiments the same 30 G needle was used.

OCCO [ethylene glycol]
Force (flow 6 sec/mL, 167 μL/sec, piston velocity 573 mm/min): 83 N
Force (flow 8 sec/mL, 125 μL/sec, piston velocity 430 mm/min): 62 N
Force (flow 10 sec/mL, 100 μL/sec, piston velocity 344 mm/min): 51 N
Force (flow 15 sec/mL, 67 μL/sec, piston velocity 229 mm/min): 35 N
Force (flow 20 sec/mL, 50 μL/sec, piston velocity 172 mm/min): 27 N
